Legend:
Test in all cases: normalised response (% of control), CellTiter-Glo; higher = more viable cells (100 = DMSO, 0 = benzethonium chloride kill control)
Details in all cases: incubation time: 72 h
[1] = tested on: CAL-148
In short: (§1)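 Normalised signals at single concentrations make up the values. They come from breast cancer cell lines seeded (20 µl suspension) into 384-well plates with compound at 5 concentrations in 10-fold steps over a compound-specific 10,000-fold range, incubated 72 h, and read for CellTox Green fluorescence then CellTiter-Glo luminescence. Each plate was normalised to 0.1 % DMSO (100) and a positive kill control (0).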

[2] = tested on: MCF-10A
In short: as §1

[3] = tested on: MDA-MB-453
In short: as §1

[4] = tested on: SK-BR-3
In short: as §1

[5] = tested on: BT-549
In short: as §1

[6] = tested on: DU-4475
In short: as §1

[7] = tested on: MDA-MB-468
In short: as §1

[8] = tested on: HCC1937
In short: as §1

[9] = tested on: HCC1143
In short: as §1

[10] = tested on: HDQ-P1
In short: as §1

[11] = tested on: HCC1599
In short: as §1

[12] = tested on: CAL-51
In short: as §1

[13] = tested on: Hs578T
In short: as §1

[14] = tested on: CAL-85-1
In short: as §1

[15] = tested on: BT-474
In short: as §1

[16] = tested on: MDA-MB-231
In short: as §1

[17] = tested on: CAL-120
In short: as §1

[18] = tested on: MDA-MB-436
In short: as §1

[19] = tested on: MFM-223
In short: as §1

SMILES	normalised response [1]	normalised response [2]	normalised response [3]	normalised response [4]	normalised response [5]	normalised response [6]	normalised response [7]	normalised response [8]	normalised response [9]	normalised response [10]	normalised response [11]	normalised response [12]	normalised response [13]	normalised response [14]	normalised response [15]	normalised response [16]	normalised response [17]	normalised response [18]	normalised response [19]
NS(=O)(=O)OC[C@@H]1C[C@@H](n2ccc3c(N[C@H]4CCc5ccccc54)ncnc32)C[C@@H]1O [Pevonedistat] (1 nM)	106%	115%	110%	107%	99.2%	94.7%	96.7%	100%	105%	100%	95.9%	79.2%	99.7%	93.9%	93.6%	102%	100%	99.7%	102%
NS(=O)(=O)OC[C@@H]1C[C@@H](n2ccc3c(N[C@H]4CCc5ccccc54)ncnc32)C[C@@H]1O [Pevonedistat] (10 nM)	109%	112%	100%	93.5%	94%	109%	97.2%	99.1%	102%	95.9%	97.1%	77%	103%	100%	114%	107%	97.8%	96.6%	102%
CNNCc1ccc(C(=O)NC(C)C)cc1 [Procarbazine] (1 nM)	104%	111%	108%	112%	111%	103%	104%	111%	112%	104%	109%	88.6%	108%	103%	102%	104%	101%	101%	105%
CNNCc1ccc(C(=O)NC(C)C)cc1 [Procarbazine] (10 nM)	108%	103%	95.8%	109%	100%	107%	113%	107%	105%	109%	91.3%	66.9%	101%	99%	97.9%	106%	102%	97.2%	104%
CN(C)C[C@@H]1CCn2cc(c3ccccc32)C2=C(C(=O)NC2=O)c2cn(c3ccccc23)CCO1 [Ruboxistaurin] (1 nM)	97.7%	106%	98.9%	98.4%	96.9%	99.8%	106%	94.6%	94.4%	101%	99.2%	129%	96.7%	96.7%	95.3%	97.9%	90.3%	105%	98.6%
CN(C)C[C@@H]1CCn2cc(c3ccccc32)C2=C(C(=O)NC2=O)c2cn(c3ccccc23)CCO1 [Ruboxistaurin] (10 nM)	96.1%	98.3%	100%	116%	95.5%	95.3%	103%	99.5%	99.9%	101%	104%	91.4%	98.1%	95.6%	99.1%	94%	94.3%	101%	94.6%
CN1CCN(CCOc2cc(OC3CCOCC3)c3c(Nc4c(Cl)ccc5c4OCO5)ncnc3c2)CC1 [Saracatinib] (1 nM)	97.9%	96.5%	103%	98.6%	105%	102%	99.2%	95.7%	89.2%	94.5%	116%	116%	97.4%	105%	94.4%	94.6%	94.4%	103%	97.5%
CN1CCN(CCOc2cc(OC3CCOCC3)c3c(Nc4c(Cl)ccc5c4OCO5)ncnc3c2)CC1 [Saracatinib] (10 nM)	91.6%	97.8%	107%	113%	103%	103%	93.2%	97.6%	94.4%	118%	103%	129%	101%	104%	93.5%	92.7%	93.1%	94.8%	96%
Cn1cncc1[C@@](N)(c1ccc(Cl)cc1)c1ccc2c(c1)c(-c1cccc(Cl)c1)cc(=O)n2C [Tipifarnib] (1 nM)	97.3%	94.5%	109%	102%	102%	103%	93.4%	93.4%	94.6%	93.5%	93.1%	90.2%	96.2%	102%	89.8%	99.5%	92.2%	88%	96.3%
Cn1cncc1[C@@](N)(c1ccc(Cl)cc1)c1ccc2c(c1)c(-c1cccc(Cl)c1)cc(=O)n2C [Tipifarnib] (10 nM)	96.7%	92.3%	84.6%	85.1%	98.9%	102%	94%	82.3%	101%	87.7%	94.3%	121%	95.8%	108%	94.4%	98.6%	93.1%	88.7%	95.2%
O=C1NC(=O)[C@@H](c2cn3c4c(cccc24)CCC3)[C@@H]1c1c[nH]c2ccccc12 [Tivantinib] (0.1 nM)	101%	101%	92.5%	108%	104%	98.8%	104%	95.6%	97.9%	101%	107%	87.5%	103%	96.2%	102%	97.8%	101%	106%	103%

Reference: the supplement of paper PMC4862054
